For 20 molecules, IC50 results are on record in patent US10023570B2 (Array BioPharma, Inc., priority 2015, dated 2018).

Structures are written as SMILES.

The term IC50 denotes the concentration at which inhibition is half-maximal. A high value points to weaker potency in that assay.

In the assay the target is human KDR protein in HEK-293 cells (Homo sapiens (Human), UniProt P35968). Description: KDR Cell Assay (phospho-KDR in HEK-293 cells expressing inducible KDR). The settings on record: pKDR Cell HEK 10% FBS IC50, HEK-293 cells expressing inducible KDR, VEGF stimulated, 10% FBS. The format is cell-based. The procedure:
The cellular potency of a compound inhibiting KDR kinase was determined in HEK-293 cells expressing an inducible human KDR protein. […] The cells were incubated for 1 hour with test compound in DMEM at a final DMSO concentration of 0.25%. […] The media was aspirated and 35 μL of a 1× lysis buffer was added. […] The lysate was stored at −80° C. until ready for assay. Phospho-KDR was measured using a phospho-KDR kit (Catalog #K151BOC) purchased from Meso Scale Diagnostics (Rockville, Md.) according to the manufacturer's instructions. All values are expressed as percent of percent of control (POC). The POC values were fitted to a 4 parameter logistic curve fit and the IC50 value is point where the curve crosses 50 POC.

Chain of human KDR protein in HEK-293 cells (P35968 20-1356): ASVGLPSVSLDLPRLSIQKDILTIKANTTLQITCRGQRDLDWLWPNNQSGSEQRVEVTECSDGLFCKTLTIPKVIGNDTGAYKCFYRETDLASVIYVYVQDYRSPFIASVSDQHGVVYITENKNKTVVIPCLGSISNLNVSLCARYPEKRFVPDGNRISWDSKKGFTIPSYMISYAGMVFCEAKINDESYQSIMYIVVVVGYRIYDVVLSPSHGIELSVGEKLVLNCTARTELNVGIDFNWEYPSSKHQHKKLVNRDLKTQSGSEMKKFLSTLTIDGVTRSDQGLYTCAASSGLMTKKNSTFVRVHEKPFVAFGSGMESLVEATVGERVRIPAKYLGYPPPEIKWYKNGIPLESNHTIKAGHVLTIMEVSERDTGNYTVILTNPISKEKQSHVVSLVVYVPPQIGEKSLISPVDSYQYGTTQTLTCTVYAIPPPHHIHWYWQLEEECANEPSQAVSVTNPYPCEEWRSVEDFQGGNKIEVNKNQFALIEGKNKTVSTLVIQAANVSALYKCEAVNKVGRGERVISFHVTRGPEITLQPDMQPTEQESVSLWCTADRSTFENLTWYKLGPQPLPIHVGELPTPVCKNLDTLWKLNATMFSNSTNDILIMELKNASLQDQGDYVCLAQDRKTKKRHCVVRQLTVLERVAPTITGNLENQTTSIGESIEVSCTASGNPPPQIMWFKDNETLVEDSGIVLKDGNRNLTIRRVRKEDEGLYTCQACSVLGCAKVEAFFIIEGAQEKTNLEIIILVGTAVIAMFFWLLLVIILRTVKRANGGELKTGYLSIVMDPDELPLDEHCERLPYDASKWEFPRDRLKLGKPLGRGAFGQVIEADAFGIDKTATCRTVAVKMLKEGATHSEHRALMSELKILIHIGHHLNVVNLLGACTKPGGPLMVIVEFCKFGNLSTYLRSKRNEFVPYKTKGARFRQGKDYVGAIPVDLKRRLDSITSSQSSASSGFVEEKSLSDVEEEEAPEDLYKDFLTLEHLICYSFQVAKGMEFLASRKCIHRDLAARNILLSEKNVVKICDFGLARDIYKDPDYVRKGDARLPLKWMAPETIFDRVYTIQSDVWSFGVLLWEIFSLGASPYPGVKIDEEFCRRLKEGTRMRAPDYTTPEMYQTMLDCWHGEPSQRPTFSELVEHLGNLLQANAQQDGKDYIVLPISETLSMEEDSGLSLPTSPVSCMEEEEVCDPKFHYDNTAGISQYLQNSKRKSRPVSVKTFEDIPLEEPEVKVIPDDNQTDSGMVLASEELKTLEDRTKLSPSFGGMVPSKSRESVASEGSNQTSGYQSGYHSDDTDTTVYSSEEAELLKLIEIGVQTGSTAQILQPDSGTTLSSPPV

`Cc1nn(C)cc1C(=O)N1CCN(c2ccc(-c3cc(-c4cnn(C)c4)cn4ncc(C#N)c34)cn2)CC1` [Example 41, 4-(6-(4-(1,3-dimethyl-1H-pyrazole-4-carbonyl)piperazin-1-yl)pyridin-3-yl)-6-(1-methyl-1H-pyrazol-4-yl)pyrazolo[1,5-a]pyridine-3-carbonitrile 2,2,2-trifluoroacetate] returned an IC50 of 871 nM. Molecule `Cn1cc(-c2cc(-c3ccc(N4CCN(C(=O)Cc5ccn(C)n5)CC4)nc3)c3c(C#N)cnn3c2)cn1` [Example 42, 4-(6-(4-(2-(1-methyl-1H-pyrazol-3-yl)acetyl)piperazin-1-yl)pyridin-3-yl)-6-(1-methyl-1H-pyrazol-4-yl)pyrazolo[1,5-a]pyridine-3-carbonitrile 2,2,2-trifluoroacetate] gave an IC50 of 502 nM. As for `Cn1cc(-c2cc(-c3ccc(N4CCN(C(=O)CCc5cccnc5)CC4)nc3)c3c(C#N)cnn3c2)cn1` [Example 43, 6-(1-methyl-1H-pyrazol-4-yl)-4-(6-(4-(3-(pyridin-3-yl)propanoyl)piperazin-1-yl)pyridin-3-yl)pyrazolo[1,5-a]pyridine-3-carbonitrile bis(2,2,2-trifluoroacetate)], the IC50 is 653 nM. Then `Cn1cc(-c2cc(-c3ccc(N4CCN(C(=O)[C@H](N)c5ccccc5)CC4)nc3)c3c(C#N)cnn3c2)cn1` [Example 48, (R)-4-(6-(4-(2-amino-2-phenylacetyl)piperazin-1-yl)pyridin-3-yl)-6-(1-methyl-1H-pyrazol-4-yl)pyrazolo[1,5-a]pyridine-3-carbonitrile bis(2,2,2-trifluoroacetate)], with 612 nM; and `Cc1cnc(C(=O)N2CCN(c3ccc(-c4cc(-c5cnn(C)c5)cn5ncc(C#N)c45)cn3)CC2)cn1` [Example 49, 6-(1-methyl-1H-pyrazol-4-yl)-4-(6-(4-(5-methylpyrazine-2-carbonyl)piperazin-1-yl)pyridin-3-yl)pyrazolo[1,5-a]pyridine-3-carbonitrile bis(2,2,2-trifluoroacetate)], with 237 nM; and `Cn1cc(-c2cc(-c3ccc(N4CCN(C(=O)[C@@H](N)c5ccccc5)CC4)nc3)c3c(C#N)cnn3c2)cn1` [Example 50, (S)-4-(6-(4-(2-amino-2-phenylacetyl)piperazin-1-yl)pyridin-3-yl)-6-(1-methyl-1H-pyrazol-4-yl)pyrazolo[1,5-a]pyridine-3-carbonitrile bis(2,2,2-trifluoroacetate)], with 1190 nM. `Cn1cc(-c2cc(-c3ccc(N4CCN(C(=O)c5c(F)cccc5F)CC4)nc3)c3c(C#N)cnn3c2)cn1` [Example 51, 4-(6-(4-(2,6-difluorobenzoyl)piperazin-1-yl)pyridin-3-yl)-6-(1-methyl-1H-pyrazol-4-yl)pyrazolo[1,5-a]pyridine-3-carbonitrile 2,2,2-trifluoroacetate] displayed an IC50 of 267 nM. In the case of `Cn1cc(-c2cc(-c3ccc(N4CCN(C(=O)[C@H]5CCCO5)CC4)nc3)c3c(C#N)cnn3c2)cn1` [Example 58, (R)-6-(1-methyl-1H-pyrazol-4-yl)-4-(6-(4-(tetrahydrofuran-2-carbonyl)piperazin-1-yl)pyridin-3-yl)pyrazolo[1,5-a]pyridine-3-carbonitrile] it was 439 nM; in that of `Cn1cc(-c2cc(-c3ccc(N4CCN(C(=O)[C@@H]5CCCO5)CC4)nc3)c3c(C#N)cnn3c2)cn1` [Example 60, (S)-6-(1-methyl-1H-pyrazol-4-yl)-4-(6-(4-(tetrahydrofuran-2-carbonyl)piperazin-1-yl)pyridin-3-yl)pyrazolo[1,5-a]pyridine-3-carbonitrile], 376 nM.

In the case of `Cn1cc(-c2cc(-c3ccc(N4CCN(C(=O)CC5CCOC5)CC4)nc3)c3c(C#N)cnn3c2)cn1` (centres unmarked) [Example 62, 6-(1-methyl-1H-pyrazol-4-yl)-4-(6-(4-(2-(tetrahydrofuran-3-yl)acetyl)piperazin-1-yl)pyridin-3-yl)pyrazolo[1,5-a]pyridine-3-carbonitrile], the IC50 turned out to be 1300 nM. In the case of `Cn1cc(-c2cc(-c3ccc(N4CCN(C(=O)C5CC5)CC4)nc3)c3c(C#N)cnn3c2)cn1` [Example 68, 4-(6-(4-(cyclopropanecarbonyl)piperazin-1-yl)pyridin-3-yl)-6-(1-methyl-1H-pyrazol-4-yl)pyrazolo[1,5-a]pyridine-3-carbonitrile] it was 789 nM; in that of `Cn1cc(-c2cc(-c3ccc(N4CCN(C(=O)c5ccccc5)CC4)nc3)c3c(C#N)cnn3c2)cn1` [Example 69, 4-(6-(4-benzoylpiperazin-1-yl)pyridin-3-yl)-6-(1-methyl-1H-pyrazol-4-yl)pyrazolo[1,5-a]pyridine-3-carbonitrile], 117 nM; in that of `Cn1cc(-c2cc(-c3ccc(N4CCN(C(=O)Cc5cccnc5)CC4)nc3)c3c(C#N)cnn3c2)cn1` [Example 71, 6-(1-methyl-1H-pyrazol-4-yl)-4-(6-(4-(2-(pyridin-3-yl)acetyl)piperazin-1-yl)pyridin-3-yl)pyrazolo[1,5-a]pyridine-3-carbonitrile], 503 nM. `Cn1cc(-c2cc(-c3ccc(N4CCN(C(=O)c5ccccn5)CC4)nc3)c3c(C#N)cnn3c2)cn1` [Example 72, 6-(1-methyl-1H-pyrazol-4-yl)-4-(6-(4-picolinoylpiperazin-1-yl)pyridin-3-yl)pyrazolo[1,5-a]pyridine-3-carbonitrile]: the concentration for half-maximal inhibition (IC50) was 99.9 nM. Then `Cn1cc(-c2cc(-c3ccc(N4CCN(C(=O)c5cccnc5)CC4)nc3)c3c(C#N)cnn3c2)cn1` [Example 73, 6-(1-methyl-1H-pyrazol-4-yl)-4-(6-(4-nicotinoylpiperazin-1-yl)pyridin-3-yl)pyrazolo[1,5-a]pyridine-3-carbonitrile], with 296 nM; and `Cn1cc(-c2cc(-c3ccc(N4CCN(C(=O)C5CCOCC5)CC4)nc3)c3c(C#N)cnn3c2)cn1` [Example 74, 6-(1-methyl-1H-pyrazol-4-yl)-4-(6-(4-(tetrahydro-2H-pyran-4-carbonyl)piperazin-1-yl)pyridin-3-yl)pyrazolo[1,5-a]pyridine-3-carbonitrile], with 1350 nM. Then `Cn1cc(-c2cc(-c3ccc(N4CCN(C(=O)CC5CCOCC5)CC4)nc3)c3c(C#N)cnn3c2)cn1` [Example 76, 6-(1-methyl-1H-pyrazol-4-yl)-4-(6-(4-(2-(tetrahydro-2H-pyran-4-yl)acetyl)piperazin-1-yl)pyridin-3-yl)pyrazolo[1,5-a]pyridine-3-carbonitrile], with 1010 nM; and `Cn1cc(-c2cc(-c3ccc(N4CCN(C(=O)CC5CC5)CC4)nc3)c3c(C#N)cnn3c2)cn1` [Example 77, 4-(6-(4-(2-cyclopropylacetyl)piperazin-1-yl)pyridin-3-yl)-6-(1-methyl-1H-pyrazol-4-yl)pyrazolo[1,5-a]pyridine-3-carbonitrile], with 605 nM; and `Cn1cc(-c2cc(-c3ccc(N4CCN(C(=O)Cc5ccccc5)CC4)nc3)c3c(C#N)cnn3c2)cn1` [Example 78, 6-(1-methyl-1H-pyrazol-4-yl)-4-(6-(4-(2-phenylacetyl)piperazin-1-yl)pyridin-3-yl)pyrazolo[1,5-a]pyridine-3-carbonitrile], with 80.6 nM. The molecule `Cn1cc(-c2cc(-c3ccc(N4CCN(C(=O)C5(O)CC5)CC4)nc3)c3c(C#N)cnn3c2)cn1` [Example 81, 4-(6-(4-(1-hydroxycyclopropane-1-carbonyl)piperazin-1-yl)pyridin-3-yl)-6-(1-methyl-1H-pyrazol-4-yl)pyrazolo[1,5-a]pyridine-3-carbonitrile] showed an IC50 of 762 nM.
